Assay [1] deals with 2-phenyl-1,4-benzoquinone-induced writhing. In words: 2-phenyl-1,4-benzoquinone-induced writhing (PQW) test in mice. In kind it is in vivo. The following applies: Mus musculus, sc, read-out: PQW ED50. The source says:
Compounds I of the present invention are useful as analgesic agents due to their ability to alleviate pain in mammals. […] Exptl. Biol. Med., 95, 729 (1957)] and in modified Haffner's analgesia.
For orientation: In writhing tests, fewer writhes than in controls are read as antinociception.

Assay [2] deals with sensitivity of mice to pressure stress (artery clip on tail). In words: Modified Haffner's analgesia (artery clip on tail). In kind it is in vivo, mice (male, Charles River, CD-1). The note with it: Mus musculus, sc, read-out: Modified Haffner's Analgesia ED50. The text has this: The latter assay is used to evaluate analgesic activity by measuring drug-induced changes in the sensitivty of mice to pressure stress by placing an artery clip (21/2 inches long) on their tail. The procedure used is a modification of the test developed by Haffner, Dtsch. Med. Wschr. 55, 731 (1929), and it is described below:
Male mice (Charles River, CD-1) from 18-30 grams are used for the test. An artery clip is applied to the root of the tail of a mouse (approximately 1/2 inch from the body) to induce pain. The animals quickly responds to this noxious stimuli by biting the clip or the location of the clip. This reaction time, the interval between stimulus onset and response, is recorded on 1/10 second increments by a stop watch.
For a time response, the screening dose (25 mg/kg) is administered subcutaneously (10 ml/kg) to the animal receiving food and water ad libitum before testing. Animals receiving the compound orally are fasted 18-24 hours before drug administration. Drug to be tested is prepared with distilled water and if insoluble, one drop of a surfactant is added.
Twenty-eight animals (seven/group) are administered the drug 15, 30, 45 and 60 minutes prior to testing.
The cut-off time (CO) is determined by taking the (x) average+3 standard (SD) deviation of the combined response latencies of the control mice in all time periods.
Any reaction time, in subsequent drug tests, which is greater than the CO (for the same time period) therefore exceeds 99% of normal Gaussian distribution and is called "positive response" indicative of analgesic activity. A time response indicates the period of greatest analgesic effect after dosing. The ED50 is determined at the peak time of drug activity. A minimum of three dose groups are used. ED50 's are calcualted using computer analysis.

In assay [3] the test system is tetrabenazine-induced ptosis. In words: Prevention of Tetrabenazine-Induced Ptosis in Mice. In kind it is in vivo, mice (male). The following applies: Mus musculus, po, read-out: Antidepressant activity ED50. The text has this: The test method and results are described below.
Tetrabenazine (TBZ) induces behavioral depression with concomitant ptosis in mice similar to reserpine. Antidepressant compounds, both monoamineoxidase inhibitors and tricyclics, are known to prevent or antagonize these effects and the degree of antagonism correlates with clinical efficacy. The prevention of […] ptosis in mice is used as a preliminary screen for possible antidepressant activity. The method used in this invention is as follows:
Male mice weighing 20 to 30 grams are used in test groups of five subjects. All compounds are dissolved or suspended with a suitable surfactant in distilled water and administered in volumes of 10 ml/kg of body weight. TBZ solution is made from the methanesulfonate salt and the concentration is adjusted to enable administration of 60 mg/kg of base by intraperitoneal (i.p.) injection.
The pretreatment time is measured from the time of dosing to observation. Therefore, when a 30-minute pretreat is utilized, drug and TBZ are given simultaneously. A control group received solvent and TBZ at intervals identical to drug group. For a primary screen, the drug is administered i.p. and a group size of five is utilized. Eight animals/group are used for a dose range.
The total score for each group of five in a primary screen will, therefore, be from 0 to 20 and these scores are used as indications of drug activity.
The vehicle control group score is used as a determinant of the validity of each test. […] The calculation of percent inhibition of ptosis is: [formula]

Assay [4] has as its system supramaximal electroshock (extensor tonus). In words: Anticonvulsant activity, supramaximal electroshock (SES) assay. The note with it: ip; male mouse, at peak activity time. In kind it is in vivo. The protocol:
Compounds I of the present invention are also useful as anticonvulsant agents due to their anticonvulsant activity in mammals. Anticonvulsant activity is measured in the male mouse using the supramaximal electroshock (SES) assay described in Arch. Int. Pharmacodyn. 92:97-107, 1952. In this procedure groups of animals are used. Drugs are prepared using distilled water and, if insoluble, a surfactant is added. Control animals receive vehicle. Drugs are routinely administered intraperitoneally (i.p.). The dosage volume is 10 ml/kg. A primary screen is given a 30 minute pretreat. The animal's eyes are placed across the output terminals of an A.C. shocker that delivers 206 volts rms for 300 msec. Electrode paste coats the animals eyes at the point of contact with the terminals. […] Protection is expressed as normalized percent inhibition relative to vehicle control.
A time response is carried out using six animals/group. Animals are tested at 30, 60 and 120 minutes postdrug. Additional time periods are tested if indicated by previous tests. When the peak activity time has been determined, a dose response is initiated using 10 animals/group at that time period. The ED50 and 95% confidence interval are calculated by computer probit analysis.
In general terms: In the maximal electroshock model the usual endpoint is tonic extension of the hind limbs.

Assay [5] deals with scopolamine induced memory deficit. In words: Dark Avoidance Assay (scopolamine-induced memory deficit). In kind it is in vivo. The note with it: mice, 24 hours. The protocol:
In this assay mice are tested for their ability to remember an unpleasant stimulus for a period of 24 hours. A mouse is placed in a chamber that contains a dark compartment; a strong incandescent light drives it to the dark compartment, where an electric shock is administered through metal plates on the floor. The animal is removed from the testing apparatus and tested again, 24 hours later, for the ability to remember the electric shock. If scopolamine, an anticholinergic that is known to cause memory impairment, is administered before an animal's initial exposure to the test chamber, the animal re-enters the dark compartment shortly after being placed in the test chamber 24 hours later.

Setting [6] is: mice, s.c., at peak time of drug activity.

Where two headings read alike, the source gives them in different places.

The ED50 is the dose at which the effect has come halfway, by size or by number of responders. On to `Cl.Fc1cnccc1Nn1c2ccccc2c2ccccc21` [N-(3-Fluoro-4-pyridinyl)-9H-carbazol-9-amine hydrochloride], for which the ED50 in assay [1] (mice, s.c.) worked out at 1.3 mg/kg; in assay [2] (setting [6]), 0.7 mg/kg.
Turning to `CN(c1ccncc1)n1c2ccccc2c2ccccc21.O=C(O)/C=C\C(=O)O` [N-Methyl-N-(4-pyridinyl)-9H-carbazol-9-amine maleate], the median effective dose (ED50) in assay [1] (mice, s.c.) is 0.1 mg/kg; in assay [2] (setting [6]), 0.19 mg/kg; in assay [3] (mice, p.o., TBZ 60 mg/kg i.p.), 1.5 mg/kg.
On to `CNC1=Nc2ccc(Cl)cc2C(c2ccccc2)=[N+]([O-])C1` [Chlordiazepoxide, reference compound], for which, in assay [4], it took a dose of 8 mg/kg to reach the 50% effect level (ED50).
Turning to `CCCCN(c1ccncc1)n1c2ccccc2c2ccccc21.Cl` [N-(Butyl)-N-(4-pyridinyl)-9H-carbazol-9-amine hydrochloride], in assay [5] (dose 0.63 mg/kg body weight), the “% of animals with scopolamine induced memory deficit reversal” value (shortened to “% of animals”) is 33%. Moreover, the ED50 in assay [3] (mice, p.o., TBZ 60 mg/kg i.p.) came to 5.2 mg/kg.
As for `CNCCCN1c2ccccc2CCc2ccccc21` [Desipramine, reference compound], in assay [3], the ED50 turned out to be 2.3 mg/kg.
Turning to `C=CCN(c1ccncc1)n1c2ccccc2c2ccccc21.O=C(O)/C=C\C(=O)O` [N-(2-Propenyl)-N-(4-pyridinyl)-9H-carbazol-9-amine maleate], the ED50 in assay [1] (mice, s.c.) came out at 1 mg/kg; in assay [2] (setting [6]) it was 1.2 mg/kg; in assay [3] (mice, p.o., TBZ 60 mg/kg i.p.), 3.7 mg/kg.
For `CCCN(c1ccncc1)n1c2ccccc2c2ccccc21.O=C(O)/C=C\C(=O)O` [N-(Propyl)-N-(4-pyridinyl)-9H-carbazol-9-amine maleate], the 50% effective dose (ED50) worked out at 16.9 mg/kg in assay [4]; 4.3 mg/kg in assay [1] (mice, s.c.); 9.8 mg/kg in assay [2] (setting [6]); 1.5 mg/kg in assay [3] (mice, p.o., TBZ 60 mg/kg i.p.). The “% of animals” value in assay [5] (dose 2.5 mg/kg body weight) came to 33%.
Regarding `CCN(c1ccncc1)n1c2ccccc2c2ccccc21.O=C(O)/C=C\C(=O)O` [N-Ethyl-N-(4-pyridinyl)-9H-carbazol-9-amine maleate], the ED50 amounted to 6.4 mg/kg in assay [4]; 1.1 mg/kg in assay [1] (mice, s.c.); 4.3 mg/kg in assay [2] (setting [6]); 2.2 mg/kg in assay [3] (mice, p.o., TBZ 60 mg/kg i.p.).
As for `O=C(O)/C=C\C(=O)O.c1ccc2c(c1)c1ccccc1n2Nc1ccncc1` [N-(4-Pyridinyl)-9H-carbazol-9-amine maleate], the ED50 came out at 23.4 mg/kg in assay [4]; 0.5 mg/kg in assay [1] (mice, s.c.); 0.4 mg/kg in assay [2] (setting [6]); 2.3 mg/kg in assay [3] (mice, p.o., TBZ 60 mg/kg i.p.).
In the case of `O=C1CC2(CCCC2)CC(=O)N1CCCCN(c1ccncc1)n1c2ccccc2c2ccccc21` [8-[4-(9H-carbazol-9-yl-4-pyridinylamino)butyl]-8-azaspiro[4.5]decane-7,9-dione], the “% of animals” value in assay [5] (dose 5.0 mg/kg body weight) was 60%.
In the case of `Brc1ccc2c(c1)c1ccccc1n2Nc1ccncc1.O=C(O)/C=C\C(=O)O` [3-Bromo-N-(4-pyridinyl)-9H-carbazol-9-amine maleate], the ED50 in assay [1] (mice, s.c.) was found to be 1.2 mg/kg; in assay [2] (setting [6]), 1.1 mg/kg; in assay [3] (mice, p.o., TBZ 60 mg/kg i.p.), 7.6 mg/kg. Also, the “% of animals” value in assay [5] (dose 0.31 mg/kg body weight) came out at 33%.
As to `CC(C)=CCN1CCC2(C)c3cc(O)ccc3CC1C2C` (stereo not shown) [Pentazocin, reference compound], the ED50 in assay [1] came out at 1.3 mg/kg; in assay [2], 3.9 mg/kg.
On to `CCCN(c1ccncc1F)n1c2ccccc2c2ccccc21` [N-(3-Fluoro-4-pyridinyl)-N-propyl-9H-carbazol-9-amine], for which, in assay [5] (dose 1.25 mg/kg body weight), the “% of animals” value is 27%.
For `CNC(=O)Oc1ccc2c(c1)[C@]1(C)CCN(C)[C@@H]1N2C` [Physostigmine, reference compound], the “% of animals” value in assay [5] (dose 0.31 mg/kg body weight) stood at 20%.

The record behind these values is patent US4868190A, “N-pyridinyl-9H-carbazol-9-amines” (Hoechst-Roussel Pharmaceuticals, Inc., priority 1988, dated 1989).
